# Legend:
# [1] = molecular target: T1, flavodoxin of H. pylori (Helicobacter pylori, UniProt O25776); test: Binding to flavodoxin by isothermal titration calorimetry (ITC); details: 50 mM EPPS buffer, pH 9, 7% DMSO, protein around 20 μM, read-out: affinity for flavodoxin
# T1 construct: made in house; host or cells: E. coli BL21
# Protocol: The specific binding of the inhibitors of the present invention to flavodoxin of H. pylori was confirmed by isothermal titration calorimetry (ITC). This technique not only measures the affinity of each compound for the target protein, but also determines the contribution of the enthalpic and entropic components of binding.
# The binding experiments were carried out in 50 mM EPPS buffer, pH 9 with 7% DMSO, with the inhibitor in the injection syringe at a concentration of 300-500 μM, and the protein around 20 μM in the measurement cell.
# [2] = molecular target: T2, H. pylori flavodoxin (Helicobacter pylori, UniProt O25776); test: Inhibition of the pyruvate/PFOR/flavodoxin/FqrB/NADP+ electron transfer reaction (NADPH formation at 340 nm); type: biochemical; details: 50 μM compound; anaerobic; 10 μM Fld, 0.09 mg/ml PFOR, 0.15 μM FqrB; FIG. 1
# T2 construct: made in house; host or cells: E. coli BL21 (flavodoxin, pET28a); E. coli JVQ2 (PFOR, pBS(KS)); E. coli BL21(DE3) (FqrB, pET29b)
# T2 sequence (O25776 1-164): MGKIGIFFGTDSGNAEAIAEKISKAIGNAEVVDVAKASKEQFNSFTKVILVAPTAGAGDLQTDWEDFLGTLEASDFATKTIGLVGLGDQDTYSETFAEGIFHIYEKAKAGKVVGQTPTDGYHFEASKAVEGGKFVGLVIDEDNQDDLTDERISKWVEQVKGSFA
# Description: Measurement of the absorbance (A) (AU is the unit of absorbance) at 340 nm against time (t) in seconds (s).
# Flavodoxin is an essential protein for Helicobacter pylori survival as it participates in a fundamental reaction for obtaining energy from the oxidative decarboxylation of pyruvate. In this reaction, flavodoxin transfers electrons between the PFOR enzyme and the FqrB enzyme, which releases them to NADP^+.
# The sequential reaction of electron transfer between pyruvate, PFOR, flavodoxin, FqrB and NADP^+ (activity assay) was followed spectroscopically by the appearance of the signal at 340 nm with the formation of NADPH. The reaction mixture contained 100 mM potassium phosphate pH 7, 10 mM pyruvate, 0.18 mM CoA, 1 mM MgCl, 0.3 mM NADP^+, 0.09 mg/ml PFOR, 10 μM Fld and 0.15 μM FqrB. The mixture, except CoA, was placed in a cuvette specially designed for anaerobic conditions. Oxygen was removed by means of 5 minute cycles with alternate flows of vacuum and argon. The reaction was started by the addition of 0.18 mM coenzyme A (CoA) that was held in a compartment inside the same cuvette. The reaction completed 15 minutes after adding the CoA reagent.
# The inhibition assays were carried out in the same conditions as the activity assays previously described, adding an additional 50 μM of the disclosed compound of the general formula shown in (II) to the reaction cuvette.
compound,measurement,setting,value
COc1ccc(CSc2ccc([N+](=O)[O-])c3nonc23)cc1 [formula (II)],Kd,[1],3 µM
same,"inhibition of NADPH formation (product formation curve, absorbance at 340 nm)",[2],almost total

# Source: patent US8367840B2, “Composition for treating infectious diseases caused by Helicobacter” (Universidad de Zaragoza, priority 2007, dated 2013)
